pIC50: −log10 of the molar value.
These molecules were tested on HCT-116 (assay: Compound was evaluated by a cytotoxicity assay in HCT116 human colon carcinoma cell line).
Type: functional, cell-based

| SMILES | pIC50 |
| --- | --- |
| CO[C@@H](C(=O)O[C@H]1C[C@@]2(O)[C@@H](OC(=O)c3ccccc3)C3[C@](C)(C(=O)[C@H](OC(C)=O)C(=C1C)C2(C)C)[C@@H](O)C[C@H]1OC[C@@]31OC(C)=O)[C@@H](NC(=O)c1ccccc1)c1ccccc1 (some centres undefined) | 6.06 |
| CC(=O)O[C@H]1C(=O)[C@@]2(C)C([C@H](OC(=O)c3ccccc3)[C@]3(O)C[C@H](OC(=O)C[C@@H](NC(=O)c4ccccc4)c4ccccc4)C(C)=C1C3(C)C)[C@]1(OC(C)=O)CO[C@@H]1C[C@@H]2O (some centres undefined) | 6.53 |
| CC(=O)O[C@H]1C(=O)[C@@]2(C)C([C@H](OC(=O)c3ccccc3)[C@]3(O)C[C@H](OC(=O)[C@H](F)[C@@H](NC(=O)c4ccccc4)c4ccccc4)C(C)=C1C3(C)C)[C@]1(OC(C)=O)CO[C@@H]1C[C@@H]2O (some centres undefined) | 6.32 |
| CC(=O)O[C@H]1C(=O)[C@@]2(C)[C@H]([C@H](OC(=O)c3ccccc3)[C@]3(O)C[C@H](OC(=O)[C@H](O)[C@@H](NC(=O)c4ccccc4)c4ccccc4)C(C)=C1C3(C)C)[C@]1(OC(C)=O)CO[C@@H]1C[C@@H]2O [PACLITAXEL] | 8.40 |

Reference: ChEMBL document CHEMBL1126979, “Studies toward structure-activity relationships of taxol: synthesis and cytotoxicity of taxol analogues with C-2 modified phenylisoserine side chains” (Bioorg Med Chem Lett, 1993)
